From patent EP4227307A1 (Genzyme Corporation, priority 2022, dated 2023)
Counter-ions that a name gives are not always drawn.

The compounds below were run against T1, human recombinant 6His-Nterm SHP2 full-length (Thr2-Arg593) (Homo sapiens, UniProt Q06124) (assay: SHP2 Phosphatase Assay (DiFMUP fluorescence)). Details: SHP2 0.2 nM pre-incubated with 100 nM bi-phosphorylated activating peptide; compound 1000-0.05 nM, 30 min pre-incubation; DiFMUP 20 µM, 45 min, room temperature; 10-concentration dose-response.
T1 construct: 6His-Nterm SHP2 full-length (Thr2-Arg593, R&D system); 6His (N); purchased R&D system
T1 sequence (Q06124 2-593): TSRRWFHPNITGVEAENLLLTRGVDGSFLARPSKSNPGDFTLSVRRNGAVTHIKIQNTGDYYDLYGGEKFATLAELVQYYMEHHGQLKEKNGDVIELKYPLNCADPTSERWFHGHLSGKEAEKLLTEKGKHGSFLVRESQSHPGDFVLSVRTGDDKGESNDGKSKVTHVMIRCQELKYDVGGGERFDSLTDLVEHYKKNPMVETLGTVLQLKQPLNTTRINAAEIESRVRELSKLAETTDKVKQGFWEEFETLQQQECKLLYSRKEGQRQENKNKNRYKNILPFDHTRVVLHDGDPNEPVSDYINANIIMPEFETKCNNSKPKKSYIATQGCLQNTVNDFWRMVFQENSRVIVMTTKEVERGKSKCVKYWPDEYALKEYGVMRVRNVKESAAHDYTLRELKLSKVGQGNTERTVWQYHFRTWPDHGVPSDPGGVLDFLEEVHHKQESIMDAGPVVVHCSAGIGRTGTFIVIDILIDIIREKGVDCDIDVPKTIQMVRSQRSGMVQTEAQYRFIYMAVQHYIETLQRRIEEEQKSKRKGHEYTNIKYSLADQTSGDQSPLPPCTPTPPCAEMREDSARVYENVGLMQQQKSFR
Format: biochemical
How it was run: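 SHP2 (0.2 nM) preactivated ≥10 min with 100 nM bis-phosphorylated peptide, then 30 min with compound (10 concentrations, 1000–0.05 nM) at room temperature, pH 7.2 HEPES buffer with DTT. DiFMUP (20 µM, added solution) reacted 45 min, pervanadate-stopped; fluorescence 350/450 nm. IC50 by 4-parameter logistic fit.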

First: Cc1nc(N2CCC3(CC2)Cc2ncccc2[C@H]3N)c2ccnn2c1-c1ccnc(CO)c1Cl [Compound 207, [4-[4-[(5S)-5-aminospiro[5,7-dihydrocyclopenta[b]pyridine-6,4'-pipetidine]-1'-yl]-6-methyl-pyrazolo[1,5-a]pyrazin-7-yl]-3-chloro-2-pyridyl]methanol]
Second: Cc1nccc(Sc2c(C)nc(N3CCC4(CC3)Cc3ncccc3[C@H]4N)c3ccnn23)c1Cl [Compound 231, (S)-1'-(7-((3-chloro-2-methylpyridin-4-yl)thio)-6-methylpyrazolo[1,5-a]pyrazin-4-yl)-5,7-dihydrospiro[cyclopenta[b]pyridine-6,4'-piperidin]-5-amine]
The IC50 of the first is 2-fold higher: 16 nM for the first, 8 nM for the second. The second is the more potent here.

Compared with `Cc1nc(N2CCC3(CC2)Cc2ncccc2[C@H]3N)c2ccnn2c1-c1ccc(F)c2cc[nH]c12` [Compound 208, (5S)-1'-[7-(4-fluoro-1H-indol-7-yl)-6-methyl-pyrazolo[1,5-a]pyrazin-4-yl]spiro[5,7-dihydrocyclopenta[b]pyridine-6,4'-piperidine]-5-amine], `Cc1nc(N2CCC3(CC2)Cc2ncccc2[C@H]3N)c2ccnn2c1-c1ccn(C)c(=O)c1F` [Compound 228, 4-[4-[(5S)-5-aminospiro[5,7-dihydrocyclopenta[b]pyridine-6,4'-piperidine]-1'-yl]-6-methyl-pyrazolo[1,5-a]pyrazin-7-yl]-3-fluoro-1-methyl-pyridin-2-one] is 29-fold higher in IC50: 3 nM for the first, 86 nM for the second. The first is the more potent here.

`Cc1nc(N2CCC3(CC2)Cc2ncc(C#N)cc2[C@H]3N)c2ccnn2c1-c1ccccc1F` [Compound 209, (5S)-5-amino-1'-[7-(2-fluorophenyl)-6-methyl-pyrazolo[1,5-a]pyrazin-4-yl]spiro[5,7-dihydrocyclopenta[b]pyridine-6,4'-piperidine]-3-carbonitrile] and `Cc1nc2c(o1)[C@@H](N)C1(CCN(c3nc(C)c(-c4ccccc4F)n4nccc34)CC1)C2` [Compound 224, (6S)-1'-[7-(2-fluorophenyl)-6-methyl-pyrazolo[1,5-a]pyrazin-4-yl]-2-methyl-spiro[4,6-dihydrocyclopenta[d]oxazole-5,4'-piperidine]-6-amine] are within 1.5-fold of each other in IC50: 21 nM for the first, 27 nM for the second.

`Cc1nc(N2CCC3(CC2)Cc2ncccc2[C@H]3N)c2ccnn2c1C1CC1` [Compound 210, (5S)-1'-(7-cyclopropyl-6-methyl-pyrazolo[1,5-a]pyrazin-4-yl)spiro[5,7-dihydrocyctopenta[b]pyridine-6,4'-piperidine]-5-amine] and `Cc1nc(N2CCC3(CC2)Cc2ncccc2[C@H]3N)c2ccnn2c1-c1cccn(C)c1=O` [Compound 227, 3-[4-[(5S)-5-aminospiro[5,7-dihydrocyclopenta[b]pyridine-6,4'-piperidine]-1'-yl]-6-methyl-pyrazolo[1,5-a]pyrazin-7-yl]-1-methyl-pyridin-2-one] cannot be ordered by IC50: > 1000 nM for the first, > 1000 nM for the second.

First: COc1ccc2c(n1)[C@@H](N)C1(CCN(c3nc(C)c(-c4cccc(F)c4F)n4nccc34)CC1)C2 [Compound 213, (7S)-1'-[7-(2,3-difluorophenyl)-6-methyl-pyrazolo[1,5-a]pyrazin-4-yl]-2-methoxy-spiro[5,7-dihydrocyclopenta[b]pyridine-6,4'-piperidine]-7-amine]
Second: COc1ccc2c(n1)[C@H](N)C1(CCN(c3nc(C)c(-c4cccc(F)c4F)n4nccc34)CC1)C2 [Compound 214, (7R)-1'-[7-(2,3-difluorophenyl)-6-methyl-pyrazolo [1,5-a]pyrazin-4-yl]-2-methoxy-spiro[5,7-dihydrocyclopenta[b]pyridine-6,4'-piperidine]-7-amine]
The IC50 of the first is 27-fold lower: 22 nM for the first, 594 nM for the second.

First: COc1ccc2c(n1)[C@@H](N)C1(CCN(c3nc(C)c(-c4cccc(F)c4Cl)n4nccc34)CC1)C2 [Compound 215, (7S)-1'-[7-(2-chloro-3-fluoro-phenyl)-6-methyl-pyrazolo[1,5-a]pyrazin-4-yl]-2-methoxy-spiro[5,7-dihydrocyclopenta[b]pyridine-6,4'-piperidine]-7-amine]
Second: COc1ccc2c(n1)[C@H](N)C1(CCN(c3nc(C)c(-c4cccc(F)c4Cl)n4nccc34)CC1)C2 [Compound 216, (7R)-1'-[7-(2-chloro-3-fluoro-phenyl)-6-methyl-pyrazolo[1,5-a]pyrazin-4-yl]-2-methoxy-spiro[5,7-dihydrocyclopenta[b]pyridine-6,4'-piperidine]-7-amine]
The IC50 of the first is 30-fold lower: 23 nM for the first, 685 nM for the second. The first is the more potent here.

First: Cc1nccc(-c2c(C)nc(N3CCC4(CC3)Cc3cc(F)ccc3[C@H]4N)c3ccnn23)c1Cl [Compound 217, (1S)-1'-[7-(3-Chloro-2-methyl-4-pyridyl)-6-methyl-pyrazolo[1,5-a]pyrazin-4-yl]-5-fluoro-spiro[indane-2,4'-piperidine]-1-amine formate]
Second: Cc1nccc(-c2c(C)nc(N3CCC4(CC3)Cc3nc(O)sc3[C@H]4N)c3ccnn23)c1Cl [Compound 218, (6S)-6-amino-1'-[7-(3-chloro-2-methyl-4-pyridyl)-6-methyl-pyrazolo[1,5-a]pyrazin-4-yl]spiro[4,6-dihydrocyclopenta[d]thiazole-5,4'-piperidine]-2-ol hydrochloride]
The IC50 of the first is 22-fold lower: 8 nM for the first, 179 nM for the second.

First: COc1nc2c(s1)[C@@H](N)C1(CCN(c3nc(C)c(-c4ccnc(C)c4Cl)n4nccc34)CC1)C2 [Compound 219, (6S)-1'-[7-(3-chloro-2-methyl-4-pyridyl)-6-methyl-pyrazolo[1,5-a]pyrazin-4-yl]-2-methoxy-spiro[4,6-dihydrocyclopenta[d]thiazole-5,4'-piperidine]-6-amine]
Second: COc1nc2c(s1)[C@@H](N)C1(CCN(c3nc(C)c(-c4cnn(C)c4C)n4nccc34)CC1)C2 [Compound 220, (6S)-1'-[7-(1,5-Dimethylpyrazol-4-yl)-6-methyl-pyrazolo[1,5-a]pyrazin-4-yl]-2-methoxy-spiro[4,6-dihydrocyclopenta[d]thiazole-5,4'-piperidine]-6-amine]
The IC50 of the first is 5.2-fold lower: 5 nM for the first, 26 nM for the second. The first is the more potent here.

Compared with `COc1ccc2c(n1)CC1(CCN(c3nc(C)c(-c4cccc(F)c4F)n4nccc34)CC1)[C@@H]2N` [Compound 221, (5S)-1'-[7-(2,3-difluorophenyl)-6-methyl-pyrazolo[1,5-a]pyrazin-4-yl]-2-methoxy-spiro[5,7-dihydrocyclopenta[b]pyridine-6,4'-piperidine]-5-amine], `Cc1nc(N2CCC3(CC2)Cc2nc(O)ccc2[C@H]3N)c2ccnn2c1-c1cccc(F)c1F` [Compound 222, (5S)-5-amino-1'-[7-(2,3-difluorophenyl)-6-methyl-pyrazolo[1,5-a]pyrazin-4-yl]spiro[5,7-dihydrocyclopenta[b]pyridine-6,4'-piperidine]-2-ol hydrochloride] is 21-fold lower in IC50: 21 nM for the first, 1 nM for the second.

First: Cc1nc(N2CCC3(CC2)Cc2nc(CO)ccc2[C@H]3N)c2ccnn2c1-c1ccccc1 [Compound 223, [(5S)-5-amino-1'-(6-methyl-7-phenyl-pyrazolo[1,5-a]pyrazin-4-yl)spiro[5,7-dihydrocyclopenta[b]pyridine-6,4'-piperidine]-2-yl]methanol]
Second: COCc1cnn2c(-c3ccccc3F)c(C)nc(N3CCC4(CC3)Cc3ncccc3[C@H]4N)c12 [Compound 225, (5S)-1'-[7-(2-fluorophenyl)-3-(methoxymethyl)-6-methyl-pyrazolo[1,5-a]pyrazin-4-yl]spiro[5,7-dihydrocyclopenta[b]pyridine-6,4'-piperidine]-5-amine]
The IC50 of the first is lower: 13 nM for the first, > 1000 nM for the second. The first is the more potent here.

Going from `Cc1nccc(Sc2c(C)nc(N3CCC4(CC3)Cc3ncccc3[C@H]4N)c3ccnn23)c1F` [Compound 229, (5S)-1'-[7-[(3-fluoro-2-methyl-4-pyridyl)sulfanyl]-6-methyl-pyrazolo[1,5-a]pyrazin-4-yl]spiro[5,7-dihydrocyclopenta[b]pyridine-6,4'-piperidine]-5-amine] to `Cc1nc(N2CCC3(CC2)Cc2ncccc2[C@H]3N)c2ccnn2c1Sc1ccnc(N)c1Cl` [Compound 232, (5S)-1'-[7-[(2-amino-3-chloro-4-pyridyl)sulfanyl]-6-methyl-pyrazolo[1,5-a]pyrazin-4-yl]spiro[5,7-dihydrocyclopenta[b]pyridine-6,4'-piperidine]-5-amine], the IC50 falls from 14 nM to 4 nM (3.5-fold).

Compound `Cc1nc(N2CCC3(CC2)Cc2ncccc2[C@H]3N)c2ccnn2c1Sc1cccnc1C(F)(F)F` [Compound 230, (5S)-1'-(6-methyl-7-((2-(trifluoromethyl)pyridin-3-yl)thio)pyrazolo[1,5-a]pyrazin-4-yl)-5,7-dihydrospiro[cyclopenta[b]pyridine-6,4'-piperidin]-5-amine] has an IC50 of 15 nM.
